Measurements taken from ChEMBL document CHEMBL5465560, “Selectivity Literature for EUbOPEN Chemogenomic Library” (2024).
Blank lines part the entries; values can stand above or below the compound they belong to.

Key:
[1] = target: Serine/threonine-protein kinase MRCK beta (Homo sapiens) (UniProt Q9Y5S2); test: Selectivity interaction (Upstate Kinase Profiler service (Millipore)) EUB0000056c CDC42BPB; settings: at 1 µM
[2] = target: T1, Mitogen-activated protein kinase kinase kinase 5 (Homo sapiens) (UniProt Q99683); test: Selectivity interaction (Kinase panel (Invitrogen)) EUB0000639a MAP3K5; settings: at 200 nM
T1 sequence (whole entry): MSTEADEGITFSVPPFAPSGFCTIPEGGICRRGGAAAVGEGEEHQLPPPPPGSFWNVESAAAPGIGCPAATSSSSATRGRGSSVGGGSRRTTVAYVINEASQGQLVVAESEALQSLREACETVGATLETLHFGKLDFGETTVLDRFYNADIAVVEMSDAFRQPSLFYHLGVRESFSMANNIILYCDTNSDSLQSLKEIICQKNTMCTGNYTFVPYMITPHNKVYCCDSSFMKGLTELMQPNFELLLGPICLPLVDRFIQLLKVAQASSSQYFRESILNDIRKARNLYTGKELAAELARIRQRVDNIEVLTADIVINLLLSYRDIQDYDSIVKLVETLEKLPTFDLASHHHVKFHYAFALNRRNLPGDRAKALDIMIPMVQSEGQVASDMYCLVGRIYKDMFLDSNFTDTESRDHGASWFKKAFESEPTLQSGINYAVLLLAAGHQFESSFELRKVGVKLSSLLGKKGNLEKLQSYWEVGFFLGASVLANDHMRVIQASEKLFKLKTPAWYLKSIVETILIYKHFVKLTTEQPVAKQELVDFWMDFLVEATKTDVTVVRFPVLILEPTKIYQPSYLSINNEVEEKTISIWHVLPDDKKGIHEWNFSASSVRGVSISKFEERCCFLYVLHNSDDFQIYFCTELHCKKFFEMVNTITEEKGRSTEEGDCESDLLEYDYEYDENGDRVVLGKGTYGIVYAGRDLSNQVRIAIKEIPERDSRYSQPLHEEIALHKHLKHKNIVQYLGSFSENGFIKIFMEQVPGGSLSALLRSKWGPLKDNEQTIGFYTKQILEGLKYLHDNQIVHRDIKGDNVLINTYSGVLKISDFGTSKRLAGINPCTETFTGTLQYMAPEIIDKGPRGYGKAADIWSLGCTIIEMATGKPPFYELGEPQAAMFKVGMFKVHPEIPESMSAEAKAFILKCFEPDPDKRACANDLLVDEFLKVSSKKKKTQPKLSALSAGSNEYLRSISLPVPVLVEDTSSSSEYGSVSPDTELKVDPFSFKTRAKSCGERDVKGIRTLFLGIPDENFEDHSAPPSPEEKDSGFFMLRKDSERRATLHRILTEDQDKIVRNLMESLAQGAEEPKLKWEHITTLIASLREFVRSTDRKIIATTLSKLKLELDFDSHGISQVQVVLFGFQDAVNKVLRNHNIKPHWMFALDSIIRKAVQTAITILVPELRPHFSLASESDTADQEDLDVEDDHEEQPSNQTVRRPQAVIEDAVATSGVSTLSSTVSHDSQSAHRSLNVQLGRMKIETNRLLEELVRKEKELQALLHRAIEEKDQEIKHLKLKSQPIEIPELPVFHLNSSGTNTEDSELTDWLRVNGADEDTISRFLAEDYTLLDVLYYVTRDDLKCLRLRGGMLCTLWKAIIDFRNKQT

[3] = target: Mitotic checkpoint serine/threonine-protein kinase BUB1 (Homo sapiens, UniProt O43683); test: Selectivity interaction (KinomeScan (DiscoverX)) EUB0001049a BUB1; settings: at 1 µM
Chain of Mitotic checkpoint serine/threonine-protein kinase BUB1 (O43683 whole entry, looked up): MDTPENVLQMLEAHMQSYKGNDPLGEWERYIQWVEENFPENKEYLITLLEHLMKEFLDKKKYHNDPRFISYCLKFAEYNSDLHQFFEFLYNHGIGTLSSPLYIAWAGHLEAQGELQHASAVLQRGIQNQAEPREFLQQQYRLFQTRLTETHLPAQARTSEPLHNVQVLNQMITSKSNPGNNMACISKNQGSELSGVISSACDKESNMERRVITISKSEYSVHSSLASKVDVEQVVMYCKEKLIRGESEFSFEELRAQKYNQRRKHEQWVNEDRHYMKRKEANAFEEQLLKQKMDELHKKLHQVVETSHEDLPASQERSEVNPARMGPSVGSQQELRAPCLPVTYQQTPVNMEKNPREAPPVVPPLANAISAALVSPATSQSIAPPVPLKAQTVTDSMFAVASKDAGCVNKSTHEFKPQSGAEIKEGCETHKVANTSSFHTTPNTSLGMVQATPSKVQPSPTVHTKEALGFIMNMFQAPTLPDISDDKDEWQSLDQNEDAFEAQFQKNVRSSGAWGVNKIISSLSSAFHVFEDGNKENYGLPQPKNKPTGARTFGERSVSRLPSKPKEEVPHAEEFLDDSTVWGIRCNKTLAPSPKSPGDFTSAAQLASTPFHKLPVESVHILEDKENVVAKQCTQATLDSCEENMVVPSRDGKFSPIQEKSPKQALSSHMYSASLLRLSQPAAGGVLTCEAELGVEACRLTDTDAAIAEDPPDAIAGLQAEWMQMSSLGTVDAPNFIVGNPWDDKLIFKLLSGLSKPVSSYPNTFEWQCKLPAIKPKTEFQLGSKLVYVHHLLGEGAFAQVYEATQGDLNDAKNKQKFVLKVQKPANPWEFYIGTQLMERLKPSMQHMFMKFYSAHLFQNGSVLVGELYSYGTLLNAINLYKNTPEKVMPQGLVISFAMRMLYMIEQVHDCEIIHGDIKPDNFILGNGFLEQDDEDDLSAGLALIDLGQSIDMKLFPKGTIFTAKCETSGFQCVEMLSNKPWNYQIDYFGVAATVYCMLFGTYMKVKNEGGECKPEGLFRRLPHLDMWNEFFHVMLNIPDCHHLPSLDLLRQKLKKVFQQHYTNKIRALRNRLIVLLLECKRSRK

[4] = target: T2, Serine/threonine-protein kinase D1 (Homo sapiens) (UniProt Q15139); test: Selectivity interaction (Ambit KINOMEscan and KiNATiv profiling in Jurkat cells) EUB0000090b PRKD1; format: cell-based; settings: at 1 µM
T2 sequence (whole entry): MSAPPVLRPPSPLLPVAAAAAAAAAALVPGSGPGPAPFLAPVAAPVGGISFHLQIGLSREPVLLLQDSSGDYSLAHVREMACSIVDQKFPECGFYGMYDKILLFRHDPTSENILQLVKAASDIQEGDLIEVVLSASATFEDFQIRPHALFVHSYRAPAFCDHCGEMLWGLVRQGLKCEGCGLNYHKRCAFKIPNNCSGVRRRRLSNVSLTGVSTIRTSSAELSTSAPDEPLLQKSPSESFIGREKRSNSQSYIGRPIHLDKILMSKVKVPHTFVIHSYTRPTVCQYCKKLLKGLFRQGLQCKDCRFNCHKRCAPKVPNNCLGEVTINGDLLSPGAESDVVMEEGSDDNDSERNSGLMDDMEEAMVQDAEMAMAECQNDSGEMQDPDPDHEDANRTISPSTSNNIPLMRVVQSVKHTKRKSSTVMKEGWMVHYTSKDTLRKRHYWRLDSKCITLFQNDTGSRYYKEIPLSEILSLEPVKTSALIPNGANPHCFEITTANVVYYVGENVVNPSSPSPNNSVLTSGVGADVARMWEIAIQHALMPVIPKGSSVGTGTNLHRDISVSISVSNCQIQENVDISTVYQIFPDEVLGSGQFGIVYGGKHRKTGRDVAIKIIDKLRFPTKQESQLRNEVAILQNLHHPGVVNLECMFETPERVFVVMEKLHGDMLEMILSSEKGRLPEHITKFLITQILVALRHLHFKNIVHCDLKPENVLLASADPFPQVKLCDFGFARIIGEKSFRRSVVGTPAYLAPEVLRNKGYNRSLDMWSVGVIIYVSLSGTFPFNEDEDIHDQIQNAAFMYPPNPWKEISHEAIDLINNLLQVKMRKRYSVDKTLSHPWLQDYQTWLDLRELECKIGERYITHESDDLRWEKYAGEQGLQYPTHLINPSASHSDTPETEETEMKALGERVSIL

[5] = target: T3, Calcium/calmodulin-dependent protein kinase type IV (Homo sapiens) (UniProt Q16566); test: Selectivity interaction (Kinase panel (KiNativ target engagement assay in Jurkat cells)) EUB0001635a CAMK4; format: cell-based; settings: Selectivity number of off-targets 0.0, Selectivity number of targets 233.0, Source Knowledge https://www.sciencedirect.com/science/article/pii/S2451945619300674?via%3Dihub, at 1 µM
T3 sequence (whole entry): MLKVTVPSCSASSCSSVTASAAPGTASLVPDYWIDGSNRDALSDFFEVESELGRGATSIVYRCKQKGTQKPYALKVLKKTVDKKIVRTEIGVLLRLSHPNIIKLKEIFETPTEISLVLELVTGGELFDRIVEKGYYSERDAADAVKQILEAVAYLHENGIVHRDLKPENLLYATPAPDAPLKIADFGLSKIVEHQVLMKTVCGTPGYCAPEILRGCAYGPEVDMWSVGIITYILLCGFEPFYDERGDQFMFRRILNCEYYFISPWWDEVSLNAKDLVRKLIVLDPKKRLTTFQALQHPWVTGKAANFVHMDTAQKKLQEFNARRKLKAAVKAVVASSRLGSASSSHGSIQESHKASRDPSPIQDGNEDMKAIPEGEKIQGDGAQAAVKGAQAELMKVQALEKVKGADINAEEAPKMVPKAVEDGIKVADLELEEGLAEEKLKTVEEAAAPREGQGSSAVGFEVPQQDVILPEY

Chain of Serine/threonine-protein kinase MRCK beta (Homo sapiens) (Q9Y5S2 whole entry): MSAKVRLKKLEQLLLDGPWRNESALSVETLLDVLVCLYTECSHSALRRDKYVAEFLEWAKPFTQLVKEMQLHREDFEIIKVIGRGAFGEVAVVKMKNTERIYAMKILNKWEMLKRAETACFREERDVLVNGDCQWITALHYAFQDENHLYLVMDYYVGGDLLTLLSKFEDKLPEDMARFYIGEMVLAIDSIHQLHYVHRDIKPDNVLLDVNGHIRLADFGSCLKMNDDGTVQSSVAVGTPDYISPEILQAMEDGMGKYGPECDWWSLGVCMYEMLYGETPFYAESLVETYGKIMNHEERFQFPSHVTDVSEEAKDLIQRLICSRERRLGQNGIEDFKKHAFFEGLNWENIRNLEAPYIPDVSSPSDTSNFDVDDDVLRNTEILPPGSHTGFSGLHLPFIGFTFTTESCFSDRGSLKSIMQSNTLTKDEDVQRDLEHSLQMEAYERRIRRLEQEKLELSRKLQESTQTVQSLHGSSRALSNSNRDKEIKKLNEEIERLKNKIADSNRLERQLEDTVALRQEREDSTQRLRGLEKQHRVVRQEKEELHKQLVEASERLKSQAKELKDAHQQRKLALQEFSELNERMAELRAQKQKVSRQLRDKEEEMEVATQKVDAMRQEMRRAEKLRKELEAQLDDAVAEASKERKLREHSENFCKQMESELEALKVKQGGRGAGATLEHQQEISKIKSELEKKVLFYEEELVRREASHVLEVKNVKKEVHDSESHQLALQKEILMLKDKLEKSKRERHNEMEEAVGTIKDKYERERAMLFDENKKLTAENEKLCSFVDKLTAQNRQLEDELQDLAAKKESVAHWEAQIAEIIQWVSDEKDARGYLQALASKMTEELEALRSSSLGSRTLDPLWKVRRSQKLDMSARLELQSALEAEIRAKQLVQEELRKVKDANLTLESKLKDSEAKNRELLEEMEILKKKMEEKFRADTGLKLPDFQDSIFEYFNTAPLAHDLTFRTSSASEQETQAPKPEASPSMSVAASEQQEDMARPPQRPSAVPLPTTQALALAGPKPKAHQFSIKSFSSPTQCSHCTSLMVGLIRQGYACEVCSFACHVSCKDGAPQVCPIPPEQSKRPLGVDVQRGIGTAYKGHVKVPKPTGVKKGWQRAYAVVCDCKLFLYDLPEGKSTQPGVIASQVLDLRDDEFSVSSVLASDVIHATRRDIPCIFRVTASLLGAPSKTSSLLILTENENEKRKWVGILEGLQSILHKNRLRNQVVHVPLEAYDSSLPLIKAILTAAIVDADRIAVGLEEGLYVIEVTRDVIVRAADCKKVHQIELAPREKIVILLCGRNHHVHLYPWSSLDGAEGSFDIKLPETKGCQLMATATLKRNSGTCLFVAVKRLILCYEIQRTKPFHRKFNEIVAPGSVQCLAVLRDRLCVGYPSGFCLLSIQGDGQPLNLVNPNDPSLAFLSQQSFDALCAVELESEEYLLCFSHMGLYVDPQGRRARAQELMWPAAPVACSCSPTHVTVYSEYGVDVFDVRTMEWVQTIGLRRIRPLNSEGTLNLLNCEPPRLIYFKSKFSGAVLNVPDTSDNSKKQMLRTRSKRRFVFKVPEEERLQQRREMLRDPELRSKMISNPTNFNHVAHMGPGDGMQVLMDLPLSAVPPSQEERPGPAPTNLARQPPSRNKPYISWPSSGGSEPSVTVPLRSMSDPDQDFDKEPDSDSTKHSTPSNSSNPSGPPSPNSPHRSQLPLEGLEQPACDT

- % of inhibition [1]: 4%
SMILES: Cc1ccc(-c2ccc3c(ccc4sc5c(c43)NC[C@@H](C)NC5=O)n2)cn1

- % of inhibition [2]: -8.62%
SMILES: CC[C@@H]1[C@H](F)C(=O)N[C@@H]1COc1nccc2cc(C(N)=O)c(OC)cc12 [ZIMLOVISERTIB]

SMILES: COc1cc(Nc2nc(C)cc(-c3cnn4nc(OC)ccc34)n2)cc(C(F)(F)F)c1
- % of control [3]: 67%

SMILES: CN(C)C/C=C/C(=O)Nc1ccc(C(=O)N2CCCC(Nc3ncc(Cl)c(-c4c[nH]c5ccccc45)n3)C2)cc1 (stereo not given)
- % of control [4]: 31%

SMILES: C=CC(=O)Nc1ccc(C(=O)Nc2[nH]nc3c2CN(C(=O)N[C@H](CN(C)C)c2ccccc2)C3(C)C)cc1
- % of engagement [5]: -6.4%
